The target of experiment [1] is Carbonic anhydrase 2 (Homo sapiens) (UniProt P00918).
Description: Inhibition of human CA2 by CO2 hydration assay
Experiment [2] addresses Carbonic anhydrase 9 (Homo sapiens) (UniProt Q16790). In words: Inhibition of human CA9 by CO2 hydration assay.
Experiment [3] deals with Carbonic anhydrase 12 (Homo sapiens) (UniProt O43570).
Description: Inhibition of human CA12 by CO2 hydration assay
Experiment [4] concerns the target Carbonic anhydrase 1 (Homo sapiens) (UniProt P00915).
Description: Inhibition of human CA1 by CO2 hydration assay

Results on eight compounds are retold here after ChEMBL document CHEMBL1208713, “Coumarins incorporating hydroxy- and chloro-moieties selectively inhibit the transmembrane, tumor-associated carbonic anhydrase isoforms IX and XII over the cytosolic ones I and II” (Bioorg Med Chem Lett, 2010).

Sequence of Carbonic anhydrase 12 (Homo sapiens) (O43570 whole entry): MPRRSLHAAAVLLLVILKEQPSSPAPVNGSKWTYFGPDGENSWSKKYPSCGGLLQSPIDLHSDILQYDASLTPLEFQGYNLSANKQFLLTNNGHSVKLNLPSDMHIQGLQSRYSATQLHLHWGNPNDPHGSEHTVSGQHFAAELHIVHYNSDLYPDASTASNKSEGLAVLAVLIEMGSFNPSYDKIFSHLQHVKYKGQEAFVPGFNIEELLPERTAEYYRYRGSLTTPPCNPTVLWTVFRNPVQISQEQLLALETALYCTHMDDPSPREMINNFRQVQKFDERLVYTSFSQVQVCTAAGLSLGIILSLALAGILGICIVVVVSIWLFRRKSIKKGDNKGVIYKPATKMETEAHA
Sequence of Carbonic anhydrase 1 (Homo sapiens) (P00915 2-261 limits assumed): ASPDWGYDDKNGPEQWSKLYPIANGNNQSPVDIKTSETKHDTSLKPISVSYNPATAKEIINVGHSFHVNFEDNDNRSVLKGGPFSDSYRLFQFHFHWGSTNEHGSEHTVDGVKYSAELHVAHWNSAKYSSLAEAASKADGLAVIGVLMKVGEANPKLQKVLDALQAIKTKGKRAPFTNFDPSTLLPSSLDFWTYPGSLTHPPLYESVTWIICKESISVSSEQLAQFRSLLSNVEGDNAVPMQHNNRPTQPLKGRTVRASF

As for `O=c1cc(O)c2ccccc2o1`, the inhibition constant (Ki) – broadly, a measure of affinity in units of concentration, obtained from inhibition or displacement – in experiment [1] was more than 100 µM; in experiment [2], 0.418 µM; in experiment [3] it was 6.3 µM; in experiment [4], 95 µM.

In the case of `O=c1ccc2ccc(O)cc2o1`, the inhibitory constant (Ki) was 0.482 µM in experiment [2] and 58.4 µM in experiment [4].

In the case of `O=c1ccc2cc(O)ccc2o1`, the Ki was more than 100 µM in experiment [1], 0.198 µM in experiment [2], 0.683 µM in experiment [3] and more than 100 µM in experiment [4].

In the case of `O=c1cc(CCl)c2ccc(Cl)cc2o1`, the Ki in experiment [1] is more than 100 µM; in experiment [2] it was 0.359 µM; in experiment [3], 0.735 µM; in experiment [4], 72.8 µM.

Regarding `O=c1oc2ccccc2cc1O`, the Ki in experiment [1] was more than 100 µM; in experiment [2] it was 0.508 µM; in experiment [3], 9.6 µM; in experiment [4] it was 79.4 µM.

In the case of `O=c1cc(CCl)c2ccc(O)cc2o1`, the inhibition constant Ki was more than 100 µM in experiment [1], 0.478 µM in experiment [2], 8.02 µM in experiment [3] and more than 100 µM in experiment [4].

As to `O=c1ccc2ccccc2o1`, the Ki in experiment [2] and in experiment [3] was more than 100 µM each time.

In the case of `O=c1cc(Cl)c2ccccc2o1`, the inhibition constant Ki in experiment [1] is more than 100 µM; in experiment [2] it was 4.92 µM; in experiment [3], 7.03 µM; in experiment [4] it was 86.9 µM.
